Test results reported in patent US20040009156A1, “Antisense therapy using oligonucleotides that target human kinesin genes for treatment of cancer” (priority 2001, published 2004).

Legend:
SW620 cells [1] = test: Cell cycle profile by FACS analysis of propidium iodide stained cells; type: cell-based, human; conditions: SW620 cells transiently transfected; FIG. 2
Method: SW620 cells were transiently transfected with antisense oligonucleotides according to the invention and the effect on cell cycle profile evaluated by FACS analysis of propidium iodide stained cells. It was observed that cell tested antisense oligonucleotides arrested cells in G2/M phase to different degrees. […] Also, the effect of the same antisense oligonucleotides on the cell cycle of normal human filonblasts was tested.

[2] = test system: human colon cancer cell line SW620; test: Soft agar growth (anchorage independent growth) of transfected SW620 cells; type: cell-based; conditions: SW620 cells transfected with antisense oligonucleotide; versus reverse control; FIG. 1
Excerpt: The antisense oligonucleotides (SEQ IDNO:17), (SEQ IDNO:4), and (SEQ ID NO:1) were each transfected into the human colon cancer cell line SW620. Additionally, the same colon cancer cell line was transfected with the corresponding reverse control sequences (respectively SEQ ID NO:35, SEQ ID NO:22 and SEQ ID NO:19). […] These assay results contained in FIG. 1 indicate that the synthesized kinesin antisense oligonucleotides inhibit tumorigenesis.

SW620 cells [3] = test: LDH cytotoxicity assay, alone and with cisplatinum; type: cell-based, human; conditions: FIG. 4
Method: LDH cytotoxicity assays were performed to determine the effect of antisense oligonucleotides on SW620 cell death alone and in the presence of the chemotherapeutic drug cisplatinum. […] Also, the same LDH cytotoxicity assays were performed on MRC9 cells transfected with the same oligonucleotides in the presence or absence of cisplatinum.

Sequence | cell cycle arrest in G2/M phase (SW620 cells [1]) | capability of the cells to grow in soft agar (anchorage independent growth) [2] | cell death (LDH cytotoxicity), oligonucleotide alone (SW620 cells [3]) | cytotoxicity (LDH) in combination with cisplatinum (SW620 cells [3]; in combination with the chemotherapeutic drug cisplatinum)
CCTCCGCCATCCTATCAGGCTGAA (chemistry not given here) [SEQ ID NO:1] | next best inhibiting effect | significantly inhibited | did not induce cytotoxicity | –
TGGATAAATTGCCTGGAATCAGCGC (chemistry not given here) [SEQ ID NO:17] | – | significantly inhibited | – | increase in cytotoxicity
GTTGATCTGGGCTCGCAGAGGTAAT (chemistry not given here) [SEQ ID NO:4] | – | significantly inhibited | induced death | –
